Legend:
mouse adipocytes = assay: Mouse adipocyte-populated collagen I hydrogels with or without mechanical stretch; conditions: 10% equibiaxial strain, 7 days; GsMTx4 500 nM, D-GsMTx4 500 nM, PF573228 10 uM, Verteporfin 300 nM
human adipocytes [1] = assay: Human adipocyte-populated collagen I hydrogels with or without mechanical stretch
dorsal excisional wounds [2] = assay: Splinted dorsal excisional wounding with inhibitor injected at POD 0; assay type: in vivo, mouse
wounds [3] = assay: Visium spatial transcriptomic analysis of wounds; assay type: in vivo, mouse
Procedure: Wound specimens were rapidly harvested and flash frozen in OCT. Using the Visium Tissue Optimization Slide and Reagent Kit, permeabilization time was optimized at a thickness at 10 μm per section and 37 minutes for mouse tissue. Following cryo-sectioning at −20 degrees onto gene expression slides the expression slide and reagent kit was used to produce sequencing libraries. The libraries were then sequences using NextSeq (Illumina). Following demultiplication the raw FASTQ files and histology images were processed by sample with the Space Ranger software for genome alignment. The raw spaceranger output files for each sample was then read into a Seurat class object in R using Seurat's Load10× function. Data was normalized using the SCT transform with default parameters. To ascertain the integration of our scRNAseq and Visium spatial analysis we employed the FindTransferAnchors( ) function from Seurat, which allowed the alignment of data using the two datasets. This cross-platform linkage is performed serially in an unconstrained and constrained fashion.

human adipocytes [4] = assay: Calcium imaging of hydrogel-bound adipocytes (Fluo-4 AM); assay type: cell-based; conditions: stretched human adipocytes
Text: Calcium imaging was used to determine in vitro Ca^2+ flow in hydrogel-bound adipocytes with or without mechanical strain and with or without Piezo1 inhibitor treatment. A Fluo-4, AM cell permeant kit (ThermoFisher, Cat: F-14201) was used per the manufacturer's instructions. […] Imagej was used for image quantification.

wounds [5] = assay: CODEX spatial protein analysis of POD 14 wounds; assay type: in vivo, mouse; conditions: POD 14, vs PBS
Text: To spatially phenotype the pig specimens, we used Co-Detection by Indexing (CODEX), a novel assay in which markers are labeled with oligonucleotide-conjugated antibodies and iteratively imaged between cyclic additions and washouts of dye-labeled oligonucleotides. A custom CODEX panel was designed to assess wound cells within the tissue see Table 1). In brief, primary antibodies were individually barcoded and validated using the commercial supplier's protocols. OCT for mouse or paraffin blocks for human xenograft (n=3 per group) were sectioned at 8 μm thickness onto coverslips for CODEX antibody staining. Antigens were retrieved by standard citrate-EDTA processing prior to addition of CODEX antibodies. Using a CODEX-integrated Keyence BZ-X instrument (Akoya Biosciences) image acquisition was then performed. Using software from Akoya Biosciences the raw images were process, with cell segmentation, and rendering.
The CODEX was visualized using Akoya Biosciences Multiplex Analysis Viewer (MAV) in ImageJ. The resulting .fcs files were then concatenated in FlowJo and imported into the Monocle3 and STvEA R packages for further analysis. After debris removal, the processed UMAP manifold was analyzed through Monocle3 with a post-manifold threshold of >10,000 cells per cluster. Analysis of the protein staining patterns was then used to assign cell types. The cell interactions were then inferred using STvEA for cell types at >2.5% of total abundance at k=20 nearest neighbors to quantify cell spatial interactions, and differential interaction maps were generated using graph scores.

dorsal excisional wounds [6] = conditions: POD 30; cited from earlier work
existing scars = assay: Treatment of existing scars during remodeling (scar rescue); assay type: in vivo, mouse; conditions: treated at POD 30, 75 or 120, harvested one month later
Text: While wound re-epithelialization is complete relatively quickly (around 2 weeks), wounds continue to heal beneath the surface for months to years in a process known as scar remodeling. (Foster et al., 2021; Gurtner et al., 2008) Remodeling is the longest and least well understood phase of wound repair but is likely critical to ultimate outcomes. We postulated that ADFs could continue to play a role in scarring during the remodeling process; if this were the case, we wondered whether ADF activity could be targeted during wound remodeling, via P1i in existing, actively remodeling scars, to ultimately reduce scarring and drive regeneration (FIG. 6A,C). Thus, we administered P1i to existing scars at POD 30 (early remodeling period), POD 75 (mid-remodeling), and POD 120 (late remodeling), then harvested tissue one month later at POD 60, POD 105, and […] respectively (FIG. 6A, C).

adipocytes = assay: Adipocyte ablation with diphtheria toxin in wounded Adipoq Cre-ERT iDTR mice; assay type: in vivo, mouse
human fibroblasts = assay: Human fibroblasts in 3D collagen gels with stretching; assay type: cell-based
Text: To further confirm that human cluster 3 represented a pro-regenerative ADF population we utilized our in vitro collagen gel system. We first, FACS sorted human fibroblasts based on expression of cluster 3 markers including ROBO2, CD29, and SFRP2 and seeded them into 3D collagen gels (FIG. 42B). […] In contrast, stretching with P1 inhibition kept the fibroblasts in a more adipocyte-like phenotype, with high expression of PPARg and low expression of Collagen Type I, similar to fibroblasts in an unstretched state (FIG. 42B).
To determine if P1i may activate […] Wnt pathways to maintain cluster 3 in an adipocyte-like phenotype, we applied Wnt5a recombinant protein to the in vitro collagen gel system (FIG. 42C). […] In summary, P1i treatment may revert fibroblasts towards the mechanically naïve fibroblast pro-regenerative fibroblast population through the activation of canonical Wnt pathways and thereby preventing the transition to pro-scarring phenotypes defined by CJUN and VCAM1 expression.

## CS(=O)(=O)c1cccc(CNc2nc(Nc3ccc4c(c3)CCC(=O)N4)ncc2C(F)(F)F)c1 [FAKi, PF573228]
Mouse adipocytes
  stretch-induced phenotypic switch (losing adiponectin, expressing Col1): abrogated

## Clc1cccc(Cl)c1CSc1nnc(-c2cnccn2)s1 [Yoda1]
Human adipocytes [1]; absence of applied stretch
  adipocyte hypertrophy and conversion to fibroblasts: sufficient to drive adipocyte hypertrophy and conversion to fibroblasts

## D-GsMTx4 [P2i]
Mouse adipocytes
  stretch-induced phenotypic switch (losing adiponectin, expressing Col1): abrogated
Human adipocytes [1]; 10% equibiaxial strain, 7 days
  stretch-induced hypertrophy of human adipocytes: reversed
Dorsal excisional wounds [2]; 30 uL of 0.2 mg/ml intradermal at wound edge, POD 0
  time to complete wound re-epithelialization: did not significantly affect
Dorsal excisional wounds [2]; POD 14
  Oil Red O staining and IF for cytokeratins 14/19 (regenerating appendages): presence of putative regenerating sebaceous glands/HF
Dorsal excisional wounds [2]; POD 14, FACS and histology
  adipocyte-derived fibroblasts (ADFs) in wounds: significantly reduced
Dorsal excisional wounds [2]; POD 14 and POD 30
  Col1 and α-SMA: reduced
  ECM density: less dense
Dorsal excisional wounds [2]; POD 30
  hair follicle formation: allowed for hair follicle formation
Wounds [3]; POD 14
  differential interaction maps (Visium): strong interactions between adipocytes and fibroblasts
  fibroblast scRNA-seq cluster 0 (mechanically sensitive) spatial enrichment: highly enriched in PBS-treated POD 14 wounds compared to P1i or P2i treated wounds
  fibroblast scRNA-seq cluster 5 (mechanically naive) spatial presence: observed
  spatially variable features (gene expression): high expression of markers associated with the epidermis including Krt1 and Krt14
Wounds [3]; POD 14, vs PBS
  adipocyte and epithelial cells in the spatial environment: enriched
Human adipocytes [4]
  calcium staining with stretching: decreased
Wounds [5]
  individual adipocyte-fibroblast subpopulation interactions (CODEX): enhanced interactions between mechanically naïve subpopulations including adipocyte cluster 1 and fibroblast clusters 2 and 4

## Verteporfin [YAPi]
Mouse adipocytes
  stretch-induced phenotypic switch (losing adiponectin, expressing Col1): abrogated
Dorsal excisional wounds [6]
  hair regrowth (previous study, Mascharak et al., 2021a): allow for hair regrowth
Existing scars
  wound regeneration in existing scars: did not induce regeneration

## diphtheria toxin [DT]
adipocytes; 200 ng intradermal daily over 3 days, unwounded skin and POD 14 wounds
  subdermal fat and GFP+ cells (efficacy of ablation): minimal to no subdermal fat and no GFP^+ cells in wounds
adipocytes; POD 14
  ECM ultrastructure: less scar-like and more closely resembled unwounded skin
adipocytes; POD 14, vs PBS control scars
  Col1 and α-SMA content: decreased
  ECM density: less dense
  dermal thickness: significantly reduced

B1: Wnt5a recombinant protein: Wnt5a recombinant protein applied to the in vitro collagen gel system (protein, UniProt P41221 62-380, looked up)
Protein Wnt-5a: IIGAQPLCSQLAGLSQGQKKLCHLYQDHMQYIGEGAKTGIKECQYQFRHRRWNCSTVDNTSVFGRVMQIGSRETAFTYAVSAAGVVNAMSRACREGELSTCGCSRAARPKDLPRDWLWGGCGDNIDYGYRFAKEFVDARERERIHAKGSYESARILMNLHNNEAGRRTVYNLADVACKCHGVSGSCSLKTCWLQLADFRKVGDALKEKYDSAAAMRLNSRGKLVQVNSRFNSPTTQDLVYIDPSPDYCVRNESTGSLGTQGRLCNKTSEGMDGCELMCCGRGYDQFKTVQTERCHCKFHWCCYVKCKKCTEIVDQFVCK
Human fibroblasts
  phenotype of human fibroblasts (PPARg, Collagen Type 1): a more adipocyte like phenotype with high expression of PPARg and low expression of Collagen Type 1

Source: US20250195474A1, “Piezo Inhibition for Wound Healing” (priority 2022, published 2025)
